Reference: ChEMBL document CHEMBL3217477, “Synthesis and biological evaluation of substituted - and -2,3-dihydrofuran naphthoquinones as potent anticandidal agents” (Medchemcomm, 2010)
In brackets after ≈: the same amount, converted by molar mass.

Legend:
[1] = tested on: Candida parapsilosis; experiment: Antifungal activity against Candida parapsilosis assessed as growth inhibition at 250 ug/mL after 24 hrs by hole plate diffusion method; type: functional; settings: Lodderomyces parapsilosis, read-out: IZ
[2] = tested on: Candida dubliniensis; experiment: Antifungal activity against Candida dubliniensis assessed as growth inhibition at 250 ug/mL after 24 hrs by hole plate diffusion method; type: functional; settings: read-out: IZ
[3] = tested on: Candida tropicalis; experiment: Antifungal activity against Candida tropicalis assessed as growth inhibition at 250 ug/mL after 24 hrs by hole plate diffusion method; type: functional; settings: read-out: IZ
[4] = tested on: Candida tropicalis; experiment: Antifungal activity against Candida tropicalis assessed as growth inhibition after 24 hrs by microbroth dilution method; type: functional
[5] = tested on: Pichia kudriavzevii; experiment: Antifungal activity against Candida krusei assessed as growth inhibition at 250 ug/mL after 24 hrs by hole plate diffusion method; type: functional; settings: read-out: IZ
[6] = tested on: Kluyveromyces marxianus; experiment: Antifungal activity against Candida kefyr assessed as growth inhibition after 24 hrs by microbroth dilution method; type: functional
[7] = tested on: Candida albicans; experiment: Antifungal activity against Candida albicans assessed as growth inhibition after 24 hrs by microbroth dilution method; type: functional
[8] = tested on: Pichia kudriavzevii; experiment: Antifungal activity against Candida krusei assessed as growth inhibition after 24 hrs by microbroth dilution method; type: functional
[9] = tested on: Candida albicans; experiment: Antifungal activity against Candida albicans assessed as growth inhibition at 250 ug/mL after 24 hrs by hole plate diffusion method; type: functional; settings: read-out: IZ
[10] = Cytotoxicity against mouse NIH/3T3 cells assessed as dead cells at 12.5 ug/mL after 72 hrs by Alamar Blue assay relative to control; type: cell-based; settings: nih3t3, 72 h
[11] = tested on: Candida parapsilosis; experiment: Antifungal activity against Candida parapsilosis assessed as growth inhibition after 24 hrs by microbroth dilution method; type: functional; settings: Lodderomyces parapsilosis
[12] = tested on: Candida dubliniensis; experiment: Antifungal activity against Candida dubliniensis assessed as growth inhibition after 24 hrs by microbroth dilution method; type: functional
[13] = tested on: Kluyveromyces marxianus; experiment: Antifungal activity against Candida kefyr assessed as growth inhibition at 250 ug/mL after 24 hrs by hole plate diffusion method; type: functional; settings: read-out: IZ
[14] = Hemolytic activity in Swiss mouse erythrocytes at 50 ug/mL after 1 hr by spectrophotometric analysis relative to control; type: ADME, cell-based, Erythrocyte; settings: read-out: Activity
[15] = tested on: Candida albicans; experiment: Antifungal activity against Candida albicans ATCC 90028 assessed as growth inhibition after 24 hrs by microbroth dilution method; type: functional; settings: ATCC 90028, 24 h

SMILES | zone of inhibition at 250 µg/mL [1] [mm] | zone of inhibition at 250 µg/mL [2] [mm] | zone of inhibition at 250 µg/mL [3] [mm] | MIC [4] [µM] | zone of inhibition at 250 µg/mL [5] [mm] | MIC [6] [µM] | MIC [7] [µM] | MIC [8] [µM] | zone of inhibition at 250 µg/mL [9] [mm] | mortality [10] [%] | MIC [11] [µM] | MIC [12] [µM] | zone of inhibition at 250 µg/mL [13] [mm] | hemolysis at 1 h, 50 ug/mL [14] [%] | MIC [15] [µM]
O=C1C2=C(OC(c3ccccc3)C2)C(=O)c2ccccc21 (stereo not given) | 6.88 | 4.3 | 7.7 | 45.2 (≈ 12.5 µg/mL) | 8.29 | 90.5 (≈ 25 µg/mL) | 11.3 (≈ 3.12 µg/mL) | 90.5 (≈ 25 µg/mL) | 17 | 0 | 90.5 (≈ 25 µg/mL) | 14.9 (≈ 4.12 µg/mL) | 1.96 | -1.44 | 90.5 (≈ 25 µg/mL)
Cc1ccc(C2CC3=C(O2)C(=O)c2ccccc2C3=O)cc1 (stereo not given) | 0 | 2.75 | 7.28 | 43.1 (≈ 12.5 µg/mL) | 4.94 | 86.2 (≈ 25 µg/mL) | 43.1 (≈ 12.5 µg/mL) | 86.2 (≈ 25 µg/mL) | 10.4 | 0 | 43.1 (≈ 12.5 µg/mL) | 43.1 (≈ 12.5 µg/mL) | 4.27 | -0.786 | 86.2 (≈ 25 µg/mL)
O=C1C2=C(OC(c3ccc(Cl)cc3)C2)C(=O)c2ccccc21 (stereo not given) | 0 | 0 | 2.49 | 40.2 (≈ 12.5 µg/mL) | 6.14 | 80.5 (≈ 25 µg/mL) | 10.1 (≈ 3.12 µg/mL) | 80.5 (≈ 25 µg/mL) | 1.5 | 0 | 40.2 (≈ 12.5 µg/mL) | 40.2 (≈ 12.5 µg/mL) | 5.27 | 1.16 | 80.5 (≈ 25 µg/mL)
O=C1C2=C(OC(c3ccc(F)cc3)C2)C(=O)c2ccccc21 (stereo not given) | 3.86 | 2.66 | 3.31 | 42.5 (≈ 12.5 µg/mL) | 9.12 | 85 (≈ 25 µg/mL) | 21.2 (≈ 6.25 µg/mL) | 85 (≈ 25 µg/mL) | 10.3 | 0 | 42.5 (≈ 12.5 µg/mL) | 42.5 (≈ 12.5 µg/mL) | 7.28 | -1.95 | 85 (≈ 25 µg/mL)
O=C1C2=C(OC(c3ccc(Br)cc3)C2)C(=O)c2ccccc21 (stereo not given) | 9.18 | 0.49 | 0 | 35.2 (≈ 12.5 µg/mL) | 7.5 | 70.4 (≈ 25 µg/mL) | 35.2 (≈ 12.5 µg/mL) | 70.4 (≈ 25 µg/mL) | 1.39 | 0 | 35.2 (≈ 12.5 µg/mL) | 70.4 (≈ 25 µg/mL) | 0 | 2.53 | 70.4 (≈ 25 µg/mL)
CC1(c2ccccc2)CC2=C(O1)C(=O)c1ccccc1C2=O (stereo not given) | 0 | 4.63 | 3.83 | 45.2 (≈ 13.1 µg/mL) | 7.05 | 90.5 (≈ 26.3 µg/mL) | 45.2 (≈ 13.1 µg/mL) | 172 (≈ 50 µg/mL) | 16.1 | 0 | 45.2 (≈ 13.1 µg/mL) | 45.2 (≈ 13.1 µg/mL) | 7.42 | 4.54 | 45.2 (≈ 13.1 µg/mL)
Cc1ccc(C2CC3=C(O2)C(=O)c2ccccc2C3=O)c(C)c1 (stereo not given) | 0 | 2.02 | 6.42 | 41.1 (≈ 12.5 µg/mL) | 9.87 | 82.1 (≈ 25 µg/mL) | 41.1 (≈ 12.5 µg/mL) | 82.1 (≈ 25 µg/mL) | 1.38 | 0 | 82.1 (≈ 25 µg/mL) | 41.1 (≈ 12.5 µg/mL) | 0 | -0.217 | 82.1 (≈ 25 µg/mL)
O=C1C2=C(OC3(C=CC=C3)C2)C(=O)c2ccccc21 | 0 | 16.6 | 7.8 | 3.27 (≈ 0.818 µg/mL) | 10.8 | 52.5 (≈ 13.1 µg/mL) | 2.09 (≈ 0.523 µg/mL) | 12.8 (≈ 3.22 µg/mL) | 16.6 | 9 | 13.1 (≈ 3.28 µg/mL) | 3.27 (≈ 0.818 µg/mL) | 9.3 | 5.92 | 13.1 (≈ 3.28 µg/mL)
O=C1C(=O)c2ccccc2C2=C1CC(c1ccccc1)O2 (stereo not given) | 7.22 | 11.9 | 5.7 | 11.3 (≈ 3.12 µg/mL) | 12 | 5.65 (≈ 1.56 µg/mL) | 45.2 (≈ 12.5 µg/mL) | 2.82 (≈ 0.779 µg/mL) | 7.37 | 0 | 22.6 (≈ 6.25 µg/mL) | 5.65 (≈ 1.56 µg/mL) | 10.8 | 1.98 | 90.5 (≈ 25 µg/mL)
